Measured values from US20050208490A1, “Ligand binding pocket peptide fragment of estrogen-related receptor 3 (err3) and uses thereof” (priority 2002, published 2005).
Substitutions are numbered along the chain they refer to. “Also recorded” adds a separate entry of the source. Like-named read-outs stand apart in the source and are kept apart here.

Tests used:
ERR3 [1] = biological target: T1, ERR3 (Homo sapiens, UniProt P62508); details: Coward et al. (2001); cited from earlier work
T1 sequence (P62508 1-458): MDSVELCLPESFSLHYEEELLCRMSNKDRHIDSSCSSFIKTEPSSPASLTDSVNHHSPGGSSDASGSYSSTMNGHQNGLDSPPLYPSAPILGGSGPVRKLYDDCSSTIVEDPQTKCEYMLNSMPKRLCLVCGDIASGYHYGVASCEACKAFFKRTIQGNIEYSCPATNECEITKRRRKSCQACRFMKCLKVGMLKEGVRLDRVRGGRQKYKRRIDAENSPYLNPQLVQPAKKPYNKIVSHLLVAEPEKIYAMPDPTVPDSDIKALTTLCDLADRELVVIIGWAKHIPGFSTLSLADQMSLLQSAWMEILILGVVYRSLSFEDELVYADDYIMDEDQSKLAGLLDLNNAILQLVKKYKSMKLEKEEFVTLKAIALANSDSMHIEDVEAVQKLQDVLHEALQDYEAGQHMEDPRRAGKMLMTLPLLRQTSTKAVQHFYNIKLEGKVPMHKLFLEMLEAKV

[2] = test system: mutant ERR3 LBDs (A272F, A272L, F435L, L345I, L345I-F435L, L345I-F435L-F450L) / GST-SRC-1 RID complex; test: In vitro protein-protein interaction assay, mutant ERR3 LBDs with SRC-1 RID (native gel); assay type: biochemical, human; details: 10^−4M 4-OHT
Experimental: (§1) The His-tagged wt or mutant ERR3 LBDs, the GST-tagged SRC-1 RID, and GST were expressed in E. coli BL21 (DE3) and partially purified by affinity chromatography using TALON (Clontech) or Glutathione Sepharose 4B (Pharmacia), respectively. […] After purification the proteins were dialyzed in assay buffer (20 mM Tris.HCl pH 8.0, 200 mM NaCl), and concentrated. For the protein-protein interaction assays […] (about 70 pmol) of His-tagged wt or mutant ERR3 LBD were mixed with […] (about 100 pmol) of GST-tagged SRC-1 RID or […] of GST and incubated on ice for 10 mins. […] Protein complexes were resolved on native polyacrylamide gradient gels (8%-25%) using the Phast System (Pharmacia).
(§2) In vitro interaction assays with the RID (amino acids 617-764) of the coactivator SRC-1 has first been performed. Hexahistidine (His)-tagged ERR3, LBD and GST-tagged SRC-1 RID were partially purified by affinity chromatography, the proteins were mixed, and complex formation was monitored on native polyacrylamide gels. […] Complexes were separated on native polyacrylamide gradient gels.
In addition, the ligand-binding pocket of ERR3 has been enlarged by either mutating F435 to leucine or by introducing a triple point mutation (L345I-F435L-F450L) which creates an “ERα-like” ligand-binding pocket.

[3] = biological target: T2, His-tagged ERR3 LBD / GST-tagged SRC-1 RID complex (Homo sapiens, UniProt P62508); test: In vitro protein-protein interaction assay, wt ERR3 LBD with SRC-1 RID (native gel); assay type: biochemical; details: 10^−4M ligand
T2 construct: cDNA fragments encoding wt or mutant ERR3 LBDs (residues 229 to 458, human and murine receptor are identical) were generated by PCR; made in house; host or cells: E. coli BL21 (DE3)
T2 sequence (P62508 229-458): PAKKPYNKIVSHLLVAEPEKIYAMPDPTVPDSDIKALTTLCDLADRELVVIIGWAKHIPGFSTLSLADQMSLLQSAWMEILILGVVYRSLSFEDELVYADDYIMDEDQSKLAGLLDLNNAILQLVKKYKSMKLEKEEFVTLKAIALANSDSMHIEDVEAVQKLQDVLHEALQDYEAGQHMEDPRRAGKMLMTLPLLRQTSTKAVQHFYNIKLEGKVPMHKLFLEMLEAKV
Experimental: as §1, §2

[4] = test system: Gal4-ERR3 mutants (A272F, A272L, F435L, L345I-F435L-F450L); test: Transient transfection luciferase reporter assay, mutant Gal4-ERR3 fusion proteins in COS-1 cells; assay type: cell-based, human; details: 10^−6M 4-OHT
Experimental: (§3) COS-1 and BHK cells were cultured in DMEM supplemented with 5% FCS, penicillin, streptomycin, and glutamine. Neuro2A cells were cultured in EMEM supplemented with 10% FCS, penicillin, streptomycin, glutamine, and non-essential amino acids. Transient transfection assays were carried out in 24-well plates (0.5×10^5 cells per well for COS-1 and Neuro2A cells, 0.25×10^5 cells per well for BHK cells) using the standard calcium phosphate coprecipitation technique as described in Greiner et al. (Greiner et al., 1996). Cells were transfected with 250 ng of Gal4(5×)-TATA-LUC, Gal4(3×)-TK-LUC, or ERE(2×)-TK-LUC reporter plasmid and 50 ng per well of pCMX-Gal4-ERR3 or pCMX-ERR3 expression plasmid. The empty plasmids pCMX-Gal4 and pCMX served as control. […] Luciferase activity was assayed as described in Greiner et al. (1996). All experiments were repeated at least three times.
(§4) Finally, it has been asked whether ERR3 could activate transcription independently of a putative endogenous ligand. The wt and mutant ERR3 LBDs were fused to the DNA-binding domain of Gal4, and Gal4-ERR3 fusion proteins were tested for their potential to activate transcription in transient transfection assays using synthetic reporters in eukaryotic cell lines. […]

Gal4-ERR3 = biological target: T3, Gal4-ERR3 (Homo sapiens, UniProt P62508); test: Transient transfection luciferase reporter assay, Gal4-ERR3 (wt LBD) in COS-1 cells; assay type: cell-based
T3 construct: cDNA fragments encoding wt or mutant ERR3 LBDs (residues 229 to 458, human and murine receptor are identical) were generated by PCR; expressed in transfected cells; host or cells: COS-1 cells (also Neuro2A and BHK)
T3 sequence (P62508 229-458): T2 sequence (P62508 229-458)
Experimental: as §3, §4

ERR3 [5] = biological target: T1, ERR3; details: Coward et al. (2001); cited from earlier work; remark: listed apart in the source
full length ERR3 = full length ERR3 (Homo sapiens, UniProt P62508); test: Transient transfection with ERE(2×)-TK-LUC reporter, full length ERR3; assay type: cell-based; details: in the presence of 4-OHT
Experimental: as §3

ERR1, ERR2 and ERR3 = details: Coward et al., 2001 / reported, cited from earlier work
ERRα = biological target: T4, ERRα (Homo sapiens, UniProt P11474); details: micromolar concentrations; Yang and Chen (1999); cited from earlier work
T4 sequence (P11474 1-423): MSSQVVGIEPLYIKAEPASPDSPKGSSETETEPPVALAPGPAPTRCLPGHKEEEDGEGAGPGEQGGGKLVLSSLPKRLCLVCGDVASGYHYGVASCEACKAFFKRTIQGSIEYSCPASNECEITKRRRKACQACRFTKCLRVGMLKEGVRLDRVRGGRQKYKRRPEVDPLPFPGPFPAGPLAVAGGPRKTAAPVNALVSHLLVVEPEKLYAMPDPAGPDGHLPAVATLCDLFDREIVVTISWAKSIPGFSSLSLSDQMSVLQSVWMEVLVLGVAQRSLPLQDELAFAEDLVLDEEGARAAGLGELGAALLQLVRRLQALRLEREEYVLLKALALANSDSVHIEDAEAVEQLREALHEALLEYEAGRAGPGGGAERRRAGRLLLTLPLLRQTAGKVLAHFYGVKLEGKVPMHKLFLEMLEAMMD

[6] = biological target: T5, ERR1 mutant F328 to alanine (Homo sapiens, UniProt P11474, F232A); details: Chen S et al., 2001; cited from earlier work
T5 sequence (P11474 1-423 F232A): T4 sequence (P11474 1-423) with F232A

Molecule	effect on ERR3 transcriptional activity (ERR3 [1])	disruption of the mutant ERR3 LBD/GST-SRC-1 RID complex ([2]; mutant F435L)	disruption of the mutant ERR3 LBD/GST-SRC-1 RID complex ([2]; mutants A272F or A272L)	antagonist action on mutant ERR3 LBD in vitro ([2]; mutants F435L, L345I-F435L, L345I-F435L-F450L)	conformational change of the ERR3 LBD (migration on native gels) [3]	disruption of the ERR3 LBD/GST-SRC-1 RID complex ([3]; native polyacrylamide gradient gel)	transcriptional activity of Gal4-ERR3 mutants ([4]; Gal4-ERR3(A272F) or Gal4-ERR3(A272L))	transcriptional activity of Gal4-ERR3 mutants ([4]; Gal4-ERR3(F435L) and Gal4-ERR3(L345I-F435L-F450L))	repression of Gal4-ERR3 constitutive activity below basal levels of the TK promoter (Gal4-ERR3; Gal4(3×)-TK-LUC reporter)	transcriptional activity of Gal4-ERR3 (Gal4-ERR3; Gal4(5×)-TATA-LUC reporter, 10^−6M 4-OHT)	affinity of binding to ERR3 (ERR3 [5])	active repression of transcription of the TK promoter by full length ERR3 (full length ERR3)	binding to ERR isotypes (ERR1, ERR2 and ERR3; listed as 40HT)	binding to ERR isotypes (ERR1, ERR2 and ERR3)	effect on ERRα basal activity (ERRα)	activation of ERR1 F328A mutant [6]
4-hydroxytamoxifen [4-OHT]	repressed transactivation; also recorded: selectively block the transcriptional activity of ERR3	still disrupted	no effect is observed	still acts as an antagonist	significant conformational change	specifically disrupted	but not of Gal4-ERR3(A272F) or Gal4-ERR3(A272L)	antagonizes the transcriptional activity	neither 4-OHT nor DES repress the constitutive activity of Gal4-ERR3 below basal levels	blocked efficiently	submicromolar	does not actively repress transcription of the TK promoter	binds both ERR2 and ERR3	does not bind ERR1; also recorded: binds to ERR2 and ERR3 but not to ERR1	–	–
ClC1=C(Cl)C2(Cl)C3C(Cl)C(Cl)CC3C1(Cl)C2(Cl)Cl (centres unmarked) [chlordane]	–	–	–	–	–	–	–	–	–	–	–	–	–	–	decrease ERRα basal activity	–
CC1(C)C(C(Cl)Cl)C2(Cl)C(Cl)C(Cl)C1(Cl)C2(Cl)Cl (centres unmarked) [toxaphene]	–	–	–	–	–	–	–	–	–	–	–	–	–	–	decrease ERRα basal activity	can be activated by toxaphene
